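Each compound was tested at five concentrations against cells in 96-well plates for 48 hours. At the GI50, growth is halved. Definition used: TGI = concentration required for complete inhibition of growth.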
How the values were obtained:
Experiment in all cases: NCI anticancer screen, dose series, 48 h
ACHN renal = test system: ACHN renal
NCI/ADR-RES ovarian = test system: NCI/ADR-RES ovarian
U251 CNS = test system: U251 CNS
MALME-3M melanoma = test system: MALME-3M melanoma
786-0 renal = test system: 786-0 renal
HOP-62 NSCLC = test system: HOP-62 NSCLC
EKVX NSCLC = test system: EKVX NSCLC
MDA-MB-231 breast = test system: MDA-MB-231 breast
IGROV1 ovarian = test system: IGROV1 ovarian
SK-MEL-2 melanoma = test system: SK-MEL-2 melanoma
KM12 colon = test system: KM12 colon
MDA-MB-435 = test system: MDA-MB-435
CAKI-1 renal = test system: CAKI-1 renal
HOP-92 NSCLC = test system: HOP-92 NSCLC
SN12C renal = test system: SN12C renal
RPMI-8226 leukemia = test system: RPMI-8226 leukemia
UO-31 renal = test system: UO-31 renal
SNB-19 CNS = test system: SNB-19 CNS
COLO 205 colon = test system: COLO 205 colon
SF-295 CNS = test system: SF-295 CNS
MCF7 breast = test system: MCF7 breast
BT-549 breast = test system: BT-549 breast
HCT-15 colon = test system: HCT-15 colon
SF-539 CNS = test system: SF-539 CNS
M14 melanoma = test system: M14 melanoma
SW-620 colon = test system: SW-620 colon
SF-268 CNS = test system: SF-268 CNS
HS 578T breast = test system: HS 578T breast
MOLT-4 leukemia = test system: MOLT-4 leukemia
OVCAR-4 ovarian = test system: OVCAR-4 ovarian
A549 NSCLC = test system: A549 NSCLC
HL-60(TB) leukemia = test system: HL-60(TB) leukemia
TK-10 renal = test system: TK-10 renal
HCT-116 colon = test system: HCT-116 colon
NCI-H460 lung = test system: NCI-H460 lung
K-562 leukemia = test system: K-562 leukemia
UACC-62 melanoma = test system: UACC-62 melanoma
DU-145 prostate = test system: DU-145 prostate
HT29 colon = test system: HT29 colon
OVCAR-8 ovarian = test system: OVCAR-8 ovarian
SK-OV-3 ovarian = test system: SK-OV-3 ovarian
UACC-257 melanoma = test system: UACC-257 melanoma
SK-MEL-28 melanoma = test system: SK-MEL-28 melanoma
CCRF-CEM leukemia = test system: CCRF-CEM leukemia
PC-3 prostate = test system: PC-3 prostate
HCC-2998 colon = test system: HCC-2998 colon
NCI-H226 lung = test system: NCI-H226 lung
RXF 393 renal = test system: RXF 393 renal
SNB-75 CNS = test system: SNB-75 CNS
A498 renal = test system: A498 renal
NCI-H23 lung = test system: NCI-H23 lung
SK-MEL-5 melanoma = test system: SK-MEL-5 melanoma
LOX IMVI melanoma = test system: LOX IMVI melanoma
NCI-H522 lung = test system: NCI-H522 lung
T-47D breast = test system: T-47D breast
OVCAR-3 ovarian = test system: OVCAR-3 ovarian
OVCAR-5 ovarian = test system: OVCAR-5 ovarian

NC(=O)[C@@H](CCC(F)(F)F)N(Cc1ccc(-c2ncon2)cc1F)S(=O)(=O)c1ccc(Cl)cc1
GI50 (ACHN renal): 26.7 µM
TGI (ACHN renal): > 73.2 µM
GI50 (NCI/ADR-RES ovarian): 47.5 µM
TGI (NCI/ADR-RES ovarian): > 100 µM
GI50 (U251 CNS): > 49 µM
TGI (U251 CNS): > 100 µM
GI50 (MALME-3M melanoma): 32 µM
TGI (MALME-3M melanoma): > 73.7 µM
GI50 (786-0 renal): > 40.5 µM
TGI (786-0 renal): > 59 µM
GI50 (HOP-62 NSCLC): > 43.2 µM
TGI (HOP-62 NSCLC): > 64.5 µM
GI50 (EKVX NSCLC): > 90.3 µM
TGI (EKVX NSCLC): > 100 µM
GI50 (MDA-MB-231 breast): 36.3 µM
TGI (MDA-MB-231 breast): > 100 µM
GI50 (IGROV1 ovarian): 51.7 µM
TGI (IGROV1 ovarian): > 100 µM
GI50 (SK-MEL-2 melanoma): 29.7 µM
TGI (SK-MEL-2 melanoma): > 63.9 µM
GI50 (KM12 colon): 23.1 µM
TGI (KM12 colon): > 56.3 µM
GI50 (MDA-MB-435): 21.3 µM
TGI (MDA-MB-435): > 59.1 µM
GI50 (CAKI-1 renal): 13.7 µM
TGI (CAKI-1 renal): > 62.8 µM
GI50 (HOP-92 NSCLC): 8.88 µM
TGI (HOP-92 NSCLC): 43.3 µM
GI50 (SN12C renal): 25.8 µM
TGI (SN12C renal): > 57.8 µM
GI50 (RPMI-8226 leukemia): 14.5 µM
TGI (RPMI-8226 leukemia): 64.4 µM
GI50 (UO-31 renal): 13.1 µM
TGI (UO-31 renal): > 100 µM
GI50 (SNB-19 CNS): > 50.6 µM
TGI (SNB-19 CNS): > 100 µM
GI50 (COLO 205 colon): 27.4 µM
TGI (COLO 205 colon): > 57.2 µM
GI50 (SF-295 CNS): 35.3 µM
TGI (SF-295 CNS): > 100 µM
GI50 (MCF7 breast): 28.4 µM
TGI (MCF7 breast): > 100 µM
GI50 (BT-549 breast): 32.6 µM
TGI (BT-549 breast): > 59 µM
GI50 (HCT-15 colon): 69.6 µM
TGI (HCT-15 colon): > 100 µM
GI50 (SF-539 CNS): 31 µM
TGI (SF-539 CNS): > 62.6 µM
GI50 (M14 melanoma): 22.2 µM
TGI (M14 melanoma): > 52.6 µM
GI50 (SW-620 colon): > 59.9 µM
TGI (SW-620 colon): > 100 µM
GI50 (SF-268 CNS): 39.6 µM
TGI (SF-268 CNS): > 100 µM
GI50 (HS 578T breast): 28.8 µM
TGI (HS 578T breast): > 100 µM
GI50 (MOLT-4 leukemia): 16.3 µM
TGI (MOLT-4 leukemia): 54.7 µM
GI50 (OVCAR-4 ovarian): 44.5 µM
TGI (OVCAR-4 ovarian): > 100 µM
GI50 (A549 NSCLC): 36.7 µM
TGI (A549 NSCLC): > 100 µM
GI50 (HL-60(TB) leukemia): 23.7 µM
TGI (HL-60(TB) leukemia): 65.6 µM
GI50 (TK-10 renal): 21 µM
TGI (TK-10 renal): > 63.5 µM
GI50 (HCT-116 colon): 35.3 µM
TGI (HCT-116 colon): > 61.7 µM
GI50 (NCI-H460 lung): 30.6 µM
TGI (NCI-H460 lung): > 100 µM
GI50 (K-562 leukemia): 34.9 µM
TGI (K-562 leukemia): > 100 µM
GI50 (UACC-62 melanoma): 18.2 µM
TGI (UACC-62 melanoma): > 50.7 µM
GI50 (DU-145 prostate): > 67.1 µM
TGI (DU-145 prostate): > 100 µM
GI50 (HT29 colon): 21.3 µM
TGI (HT29 colon): > 58.7 µM
GI50 (OVCAR-8 ovarian): 46.8 µM
TGI (OVCAR-8 ovarian): > 100 µM
GI50 (SK-OV-3 ovarian): > 50.7 µM
TGI (SK-OV-3 ovarian): > 89.9 µM
GI50 (UACC-257 melanoma): 27.3 µM
TGI (UACC-257 melanoma): > 85.6 µM
GI50 (SK-MEL-28 melanoma): 45.5 µM
TGI (SK-MEL-28 melanoma): > 100 µM
GI50 (CCRF-CEM leukemia): 20.8 µM
TGI (CCRF-CEM leukemia): > 100 µM
GI50 (PC-3 prostate): 12.6 µM
TGI (PC-3 prostate): > 100 µM
GI50 (HCC-2998 colon): > 68.9 µM
TGI (HCC-2998 colon): > 100 µM
GI50 (NCI-H226 lung): > 54.1 µM
TGI (NCI-H226 lung): > 100 µM
GI50 (RXF 393 renal): 20.8 µM
TGI (RXF 393 renal): > 100 µM
GI50 (SNB-75 CNS): 53.3 µM
TGI (SNB-75 CNS): > 100 µM
GI50 (A498 renal): 8.86 µM
TGI (A498 renal): > 62.7 µM
GI50 (NCI-H23 lung): 36.1 µM
TGI (NCI-H23 lung): > 100 µM
GI50 (SK-MEL-5 melanoma): 15.8 µM
TGI (SK-MEL-5 melanoma): 33.2 µM
GI50 (LOX IMVI melanoma): 29.9 µM
TGI (LOX IMVI melanoma): > 100 µM
GI50 (NCI-H522 lung): 48.8 µM
TGI (NCI-H522 lung): > 100 µM
GI50 (T-47D breast): 21.3 µM
TGI (T-47D breast): > 78.7 µM
GI50 (OVCAR-3 ovarian): 23.6 µM
TGI (OVCAR-3 ovarian): > 60.5 µM
GI50 (OVCAR-5 ovarian): > 49.5 µM
TGI (OVCAR-5 ovarian): > 100 µM

— PubChem BioAssay (NCI)
